Laboratory results as given in patent US8124744B2, “Macrolide derivatives” (Taisho Pharmaceutical Co., Ltd., priority 2006, dated 2012).
≈ marks a conversion by molar mass, not a printed value.

Legend:
pro MMP-9 protein = experiment: Inhibitory activity against proMMP-9 protein production (TNF α-stimulated mouse peritoneal exudate cells, ELISA); assay type: cell-based, C57BL/6J mice; conditions: relative activity when the value of Comparative Agent 1 (IC50 = 10.04 ± 4.11 μM) is 10, on the increase of pro MMP-9 by TNF α 25 ng/ml, 24 hours, read-out: IC50 (μM)*
Description: (§1) To 7- to 9-week male C57BL/6J mice (purchased from CLEA Japan, Inc. or Japan SLC, Inc.), Zymosan A (SIGMA) derived from budding yeasts which is adjusted to be 1 mg/ml in a phosphate buffer solution (PBS, 10010-49, Invitrogen) was administered intraperitoneally at 1 ml per mouse to induce peritonitis. Three days later, filter-sterilized cell recovery buffer (2 mM EDTA, 0.5% bovine serum albumin, PBS, pH 7.4) was administered intraperitoneally at 5 ml per mouse to recover peritoneal exudata cells. The cells went through a cell strainer (70 μm nylon, FALCON) and were then washed twice with a Hanks solution (Invitrogen). The cells were suspended in 10% fetal calf serum-containing Dulbecco's modified Eagle's culture medium (Invitrogen). The suspension was seeded on a plate with 48 wells, after 6 hours, the culture medium was completely exchanged. After culturing for another 18 hours, test compounds were added at 0.02 to 20 μM of the final concentration. After 1 hour from the addition of the compounds, a tumor necrosis factor (TNF) α (R & D Systems) was added at 25 ng/ml of the final concentration, and 24 hours later, the culture supernatant was collected. The amount of pro MMP-9 protein in the supernatant was quantified by an enzyme-linked immunosorbent assay (ELISA) (R & D Systems), IC50 values of the test compounds on the increased amount by TNF α stimuli, were calculated by ORIGIN analysis software (trade name: OriginLab). In addition, minimal inhibitory concentration (MIC) of each test compounds (measured bacterium: Staphylococcus aureus ATCC29213) was measured. As a comparative agent […] A (clarithromycin) was used.

[1] = tested on: Staphylococcus aureus ATCC29213; experiment: Minimal inhibitory concentration (MIC); assay type: cell-based
Description: as §1

IC50 (pro MMP-9 protein) | MIC [1] | SMILES
3.82 µM | > 128 µg/mL | CC[C@H]1OC(=O)[C@H](C)[C@@H](O[C@H]2C[C@@](C)(OC)[C@@H](O)[C@H](C)O2)[C@H](C)[C@@H](O[C@@H]2O[C@H](C)C[C@@H](N(C)Cc3cccnc3)[C@@H]2N(C)C)[C@@](C)(OC)C[C@@H](C)C(=O)[C@H](C)[C@@H](O)[C@]1(C)O [Example 190, 3′-N-demethyl-2′-deoxy-2′-dimethylamino-3′-N-(3-pyridylmethyl)-6-O-methylerythromycin A]
1.42 µM | 128 µg/mL (≈ 143 µM) | CC[C@H]1OC(=O)[C@H](C)[C@@H](O[C@H]2C[C@@](C)(OC)[C@@H](OC(C)=O)[C@H](C)O2)[C@H](C)[C@@H](O[C@@H]2O[C@H](C)C[C@@H](N(C)Cc3ccccn3)[C@@H]2N(C)C)[C@@](C)(OC)C[C@@H](C)C(=O)[C@H](C)[C@@H](O)[C@]1(C)O [Example 191, 4″-O-acetyl-3′-N-demethyl-2′-deoxy-2′-dimethylamino-3′-N-(2-pyridylmethyl)-6-O-methylerythromycin A]
2.46 µM | > 128 µg/mL | CC[C@H]1OC(=O)[C@H](C)[C@@H](O[C@H]2C[C@@](C)(OC)[C@@H](O)[C@H](C)O2)[C@H](C)[C@@H](O[C@@H]2O[C@H](C)C[C@@H](N(C)Cc3ccccn3)[C@@H]2N(C)C)[C@@](C)(OC)C[C@@H](C)C(=O)[C@H](C)[C@@H](O)[C@]1(C)O [Example 192, 3′-N-demethyl-2′-deoxy-2′-dimethylamino-3′-N-(2-pyridylmethyl)-6-O-methylerythromycin A]
1.23 µM | > 128 µg/mL | CC[C@H]1OC(=O)[C@H](C)[C@@H](O[C@H]2C[C@@](C)(OC)[C@@H](O)[C@H](C)O2)[C@H](C)[C@@H](O[C@@H]2O[C@H](C)C[C@@H](N(C)CCc3ccccc3)[C@@H]2N(C)C)[C@@](C)(OC)C[C@@H](C)C(=O)[C@H](C)[C@@H](O)[C@]1(C)O [Example 194, 3′-N-demethyl-2′-deoxy-2′-dimethylamino-3′-N-(2-phenethyl)-6-O-methylerythromycin A]
2.88 µM | > 128 µg/mL | CC[C@H]1OC(=O)[C@H](C)[C@@H](O[C@H]2C[C@@](C)(OC)[C@@H](OC(C)=O)[C@H](C)O2)[C@H](C)[C@@H](O[C@@H]2O[C@H](C)C[C@@H](N(C)CCCO)[C@@H]2N(C)C)[C@@](C)(OC)C[C@@H](C)C(=O)[C@H](C)[C@@H](O)[C@]1(C)O [Example 198, 4″-O-acetyl-3′-N-demethyl-2′-deoxy-2′-dimethylamino-3′-N-(3-hydroxypropyl)-6-O-methylerythromycin A]
3.6 µM | > 128 µg/mL | CC[C@H]1OC(=O)[C@H](C)[C@@H](O[C@H]2C[C@@](C)(OC)[C@@H](O)[C@H](C)O2)[C@H](C)[C@@H](O[C@@H]2O[C@H](C)C[C@@H](N(C)CCCO)[C@@H]2N(C)C)[C@@](C)(OC)C[C@@H](C)C(=O)[C@H](C)[C@@H](O)[C@]1(C)O [Example 199, 3′-N-demethyl-2′-deoxy-2′-dimethylamino-3′-N-(3-hydroxypropyl)-6-O-methylerythromycin A]
4.45 µM | > 128 µg/mL | CC[C@H]1OC(=O)[C@H](C)[C@@H](O[C@H]2C[C@@](C)(OC)[C@@H](O)[C@H](C)O2)[C@H](C)[C@@H](O[C@@H]2O[C@H](C)C[C@@H](N3CC[C@H](O)C3)[C@@H]2N(C)C)[C@@](C)(OC)C[C@@H](C)C(=O)[C@H](C)[C@@H](O)[C@]1(C)O [Example 201, 3′-dedimethylamino-2′-deoxy-2′-dimethylamino-3′-((S)-3-hydroxypyrrolidin-1-yl)-6-O-methylerythromycin A]
5.03 µM | > 128 µg/mL | CC[C@H]1OC(=O)[C@H](C)[C@@H](OC(C)=O)[C@H](C)[C@@H](O[C@@H]2O[C@H](C)C[C@@H](N3CCOCC3)[C@@H]2N(C)C)[C@@](C)(OC)C[C@@H](C)C(=O)[C@H](C)[C@@H](O)[C@]1(C)O [Example 203, 3-O-acetyl-5-O— (3′-dedimethylamino-2′-deoxy-2′-dimethylamino-3′-(4-morpholino)desosaminyl)-6-O-methylerythronolide A]

Continued, compound first:

SMILES | IC50 (pro MMP-9 protein) | MIC [1]
CC[C@H]1OC(=O)[C@H](C)[C@@H](O[C@H]2C[C@@](C)(OC)[C@@H](OC(C)=O)[C@H](C)O2)[C@H](C)[C@@H](O[C@@H]2O[C@H](C)C[C@@H](NC)[C@@H]2N(C)C)[C@@](C)(OC)C[C@@H](C)C(=O)[C@H](C)[C@@H](O)[C@]1(C)O [Example 174, 4″-O-acetyl-3′-N-demethyl-2′-deoxy-2′-dimethylamino-6-O-methylerythromycin A] | 1.7 µM | > 128 µg/mL
CC[C@H]1OC(=O)[C@H](C)[C@@H](O[C@H]2C[C@@](C)(OC)[C@@H](O)[C@H](C)O2)[C@H](C)[C@@H](O[C@@H]2O[C@H](C)C[C@@H](NC)[C@@H]2N(C)C)[C@@](C)(OC)C[C@@H](C)C(=O)[C@H](C)[C@@H](O)[C@]1(C)O [Example 175, 3′-N-demethyl-2′-deoxy-2′-dimethylamino-6-O-methylerythromycin A] | 1.65 µM | 128 µg/mL (≈ 168 µM)
CC[C@H]1OC(=O)[C@H](C)[C@@H](O[C@H]2C[C@@](C)(OC)[C@@H](OC(C)=O)[C@H](C)O2)[C@H](C)[C@@H](O[C@@H]2O[C@H](C)C[C@@H](N3CCOCC3)[C@@H]2N(C)C)[C@@](C)(OC)C[C@@H](C)C(=O)[C@H](C)[C@@H](O)[C@]1(C)O [Example 177, 4″-O-acetyl-3′-dedimethylamino-2′-deoxy-2′-dimethylamino-3′-(4-morpholino)-6-O-methylerythromycin A] | 4.42 µM | > 128 µg/mL
CC[C@H]1OC(=O)[C@H](C)[C@@H](O[C@H]2C[C@@](C)(OC)[C@@H](O)[C@H](C)O2)[C@H](C)[C@@H](O[C@@H]2O[C@H](C)C[C@@H](N3CCOCC3)[C@@H]2N(C)C)[C@@](C)(OC)C[C@@H](C)C(=O)[C@H](C)[C@@H](O)[C@]1(C)O [Example 178, 3′-dedimethylamino-2′-deoxy-2′-dimethylamino-3′-(4-morpholino)-6-O-methylerythromycin A] | 3.1 µM | > 128 µg/mL
CC[C@H]1OC(=O)[C@H](C)[C@@H](O[C@H]2C[C@@](C)(OC)[C@@H](O)[C@H](C)O2)[C@H](C)[C@@H](O[C@@H]2O[C@H](C)C[C@@H](N(C)Cc3ccc(N4CCOCC4)cc3)[C@@H]2N(C)C)[C@@](C)(OC)C[C@@H](C)C(=O)[C@H](C)[C@@H](O)[C@]1(C)O [Example 182, 3′-N-demethyl-2′-deoxy-2′-dimethylamino-3′-N-(4-(4-morpholino)benzyl)methyl-6-O-methylerythromycin A] | 1.72 µM | > 128 µg/mL
CC[C@H]1OC(=O)[C@H](C)[C@@H](O[C@H]2C[C@@](C)(OC)[C@@H](OC(C)=O)[C@H](C)O2)[C@H](C)[C@@H](O[C@@H]2O[C@H](C)C[C@@H](N(C)S(C)(=O)=O)[C@@H]2N(C)C)[C@@](C)(OC)C[C@@H](C)C(=O)[C@H](C)[C@@H](O)[C@]1(C)O [Example 185, 4″-O-acetyl-3′-N-demethyl-2′-deoxy-2′-dimethylamino-3′-N-methanesulfonyl-6-O-methylerythromycin A] | 2.4 µM | > 128 µg/mL
CC[C@H]1OC(=O)[C@H](C)[C@@H](O[C@H]2C[C@@](C)(OC)[C@@H](O)[C@H](C)O2)[C@H](C)[C@@H](O[C@@H]2O[C@H](C)C[C@@H](N(C)S(C)(=O)=O)[C@@H]2N(C)C)[C@@](C)(OC)C[C@@H](C)C(=O)[C@H](C)[C@@H](O)[C@]1(C)O [Example 186, 3′-N-demethyl-2′-deoxy-2′-dimethylamino-3′-N-methanesulfonyl-6-O-methylerythromycin A] | 4.01 µM | > 128 µg/mL
CC[C@H]1OC(=O)[C@H](C)[C@@H](O[C@H]2C[C@@](C)(OC)[C@@H](OC(C)=O)[C@H](C)O2)[C@H](C)[C@@H](O[C@@H]2O[C@H](C)C[C@@H](N(C)Cc3ccncc3)[C@@H]2N(C)C)[C@@](C)(OC)C[C@@H](C)C(=O)[C@H](C)[C@@H](O)[C@]1(C)O [Example 187, 4″-O-acetyl-3′-N-demethyl-2′-deoxy-2′-dimethylamino-3′-N-(4-pyridylmethylamino)-6-O-methylerythromycin A] | 1.37 µM | > 128 µg/mL
CC[C@H]1OC(=O)[C@H](C)[C@@H](O[C@H]2C[C@@](C)(OC)[C@@H](O)[C@H](C)O2)[C@H](C)[C@@H](O[C@@H]2O[C@H](C)C[C@@H](N(C)Cc3ccncc3)[C@@H]2N(C)C)[C@@](C)(OC)C[C@@H](C)C(=O)[C@H](C)[C@@H](O)[C@]1(C)O [Example 188, 3′-N-demethyl-2′-deoxy-2′-dimethylamino-3′-N-(4-pyridylmethyl)-6-O-methylerythromycin A] | 3.24 µM | > 128 µg/mL
CC[C@H]1OC(=O)[C@H](C)[C@@H](O[C@H]2C[C@@](C)(OC)[C@@H](OC(C)=O)[C@H](C)O2)[C@H](C)[C@@H](O[C@@H]2O[C@H](C)C[C@@H](N(C)Cc3cccnc3)[C@@H]2N(C)C)[C@@](C)(OC)C[C@@H](C)C(=O)[C@H](C)[C@@H](O)[C@]1(C)O [Example 189, 4″-O-acetyl-3′-N-demethyl-2′-deoxy-2′-dimethylamino-3′-N-(3-pyridylmethyl)-O-methylerythromycin A] | 3.38 µM | > 128 µg/mL
